Results from patent US5101038A, “Novel substance DC 113 and production thereof” (priority 1988, dated 1992).
In brackets after ≈: the same amount, converted by molar mass.

Columns and labels:
[1] = test system: Bacillus subtilis No. 10707; assay: Antimicrobial activity, MIC by agar dilution method (pH 7.0); assay type: cell-based; details: read-out: Minimum inhibitory concentration (MIC)
Procedure: (§1) Minimum inhibitory concentrations (MIC) against various bacteria were determined by the agar dilution method (pH 7.0).

[2] = test system: Escherichia coli ATCC 26; assay: as above; assay type: cell-based; details: ATCC26, read-out: Minimum inhibitory concentration (MIC)
Procedure: as §1

[3] = test system: Klebsiella pneumoniae ATCC 10031; assay: as above; assay type: cell-based; details: ATCC10031, read-out: Minimum inhibitory concentration (MIC)
Procedure: as §1

[4] = test system: Salmonella typhosa ATCC 9992; assay: as above; assay type: cell-based; details: Salmonella enterica, read-out: Minimum inhibitory concentration (MIC)
Procedure: as §1

[5] = test system: Staphylococcus aureus ATCC 6538P; assay: as above; assay type: cell-based; details: ATCC6538P, read-out: Minimum inhibitory concentration (MIC)
Procedure: as §1

[6] = Acute toxicity (LD50); details: mouse, in vivo; intravenous, mice
[7] = test system: Lymphocytic leukemia P-388 tumor cells; assay: Therapeutic effect upon lymphocytic leukemia P-388 tumor; assay type: in vivo, CDF1 male mice; details: 24 hours after transplantation
Procedure: Lymphocytic leukemia P-388 tumor cells (1×10^6 cells) were transplanted intraperitoneally into each of five CDF1 male mice weighing about 22 grams. Twenty-four hours after transplantation, 0.2 ml of a PBS (phosphate-buffered saline) solution of DC 113 was intraperitoneally administered to each mouse. For comparison, 0.2 ml of a PBS solution of mitomycin C was intraperitoneally administered to each of five mice 24 hours after transplantation. The life-prolonging effect of DC 113 thus established is shown below in Table 2 in terms of the T/C ratio [T mean number of days of survival after transplantation in the DC 113 group; C=mean number of days of survival after transplantation in the control group (intraperitoneally given 0.2 ml of PBS)].

[8] = Solubility; assay type: physicochemical
[9] = Stability compared with DC-88A; assay type: physicochemical; details: relative to known compound DC-88A

Structure (SMILES)	MIC [1]	MIC [2]	MIC [3]	MIC [4]	MIC [5]	LD50 [6]	Life-prolonging effect (T/C) ([7]; 0.0063 mg/kg i.p.)	Life-prolonging effect (T/C) ([7]; 0.013 mg/kg i.p.)	Solubility ([8]; in chloroform, DMSO, methanol, ethyl acetate and acetone)	Solubility ([8]; in water and n-hexane)	Stability [9]	Life-prolonging effect (T/C) ([7]; 6 mg/kg i.p.)
COC(=O)c1cc2c([nH]1)C(=O)C=C1N(C(=O)c3cc4cc(OC)c(OC)c(OC)c4[nH]3)CC3CC123 (stereo not drawn) [DC 113]	0.00065 µg/mL (≈ 0.00136 µM)	0.064 µg/mL (≈ 0.134 µM)	0.021 µg/mL (≈ 0.044 µM)	0.1 µg/mL (≈ 0.209 µM)	0.0013 µg/mL (≈ 0.00272 µM)	0.14 mg/kg	130	110	Soluble	sparingly soluble	more stable than the known compound DC-88A	–
CO[C@@]12[C@H](COC(N)=O)C3=C(C(=O)C(C)=C(N)C3=O)N1C[C@@H]1N[C@@H]12 [Mitomycin C, mitomycin C, reference compound]	–	–	–	–	–	–	–	–	–	–	–	151
